Test results: patent publication US20140004530A1, “METHOD FOR THE EVALUATION OF COMPOUND-TARGET INTERACTIONS ACROSS SPECIES” (CELLZOME GMBH, priority 2010, published 2014)

Key:
PIK3R4 = biological target: T1, PIK3R4 (Homo sapiens, UniProt Q99570); assay: Competition binding to affinity matrix in mixed human/mouse cell lysate, quantitative MS of species-specific peptides; settings: Experiment 1 (human/mouse 1); HL-60 + RAW 264.7 mixed lysate
T1 construct: Cell lysates from a human (HL60) and a mouse cell line (Raw 264.7) were prepared; endogenous in cells; host or cells: HL60
Protocol: (§1) Cell lysates from a human (HL60) and a mouse cell line (Raw 264.7) were prepared and subsequently mixed at a 1:1 ratio. Compound 1 was added at various concentrations (3 μM, 0.75 μM, 0.047 μM, 0.012 μM, plus DMSO solvent control) to aliquots of this mixed cell lysate and allowed to bind to the proteins in the lysate. Subsequently, the affinity matrix (beads with immobilized ligands) was added to each aliquot to capture proteins that were not interacting with compound 1. The generation of the affinity matrix (beads with immobilized ligands) was described in WO 2009/098021.
(§2) After the incubation time of 60 minutes the beads with captured proteins were separated from the lysate and bead bound proteins were eluted in SDS sample buffer and subsequently separated by SDS-Polyacrylamide gel electrophoresis. Electrophoresis was stopped after 20 minutes and the gel was stained with colloidal Coomassie. The stained area of each gel lane was cut out and subjected to in-gel proteolytic digestion with trypsin. Peptides originating from the different aliquots treated with compound 1 and the DMSO solvent control were labeled with isobaric tagging reagents (Tandem mass tag (TMT®) reagents, Thermofisher). The TMT® reagents are a set of multiplexed, amine-specific, stable isotope reagents that can label peptides in up to six different biological samples enabling simultaneous identification and quantitation of peptides. The combined samples were analyzed with a nano-flow liquid chromatography system coupled online to a tandem mass spectrometer (LC-MS/MS) experiment followed by reporter ion quantitation in the MS/MS spectra (Ross et al., 2004. Mol. Cell. Proteomics 3(12):1154-1169; Dayon et al., 2008. Anal. Chem. 80(8):2921-2931; Thompson et al., 2003. Anal. Chem. 75(8):1895-1904). Further experimental protocols can be found in WO2006/134056 and a previous publication (Bantscheff et al., 2007. Nature Biotechnology 25, 1035-1044).
(§3) Cells were homogenized in a Potter S homogenizer in lysis buffer: 50 mM Tris-HCl, 0.8% NP40, 5% glycerol, 150 mM NaCl, 1.5 mM MgCl2, 25 mM NaF, 1 mM sodium vanadate, 1 mM DTT, pH 7.5. One complete EDTA-free tablet (protease inhibitor cocktail, Roche Diagnostics, 1 873 580) per 25 ml buffer was added. The material was dounced 20 times using a mechanized POTTER S, transferred to 50 ml falcon tubes, incubated for 30 minutes rotating at 4° C. and spun down for 10 minutes at 20,000×g at 4° C. (10,000 rpm in Sorvall SLA600, precooled). The supernatant was transferred to an ultracentrifuge (UZ)-polycarbonate tube (Beckmann, 355654) and spun for 1 hour at 145.000×g at 4° C. (40.000 rpm in Ti50.2, pre-cooled). The supernatant was transferred again to a fresh 50 ml falcon tube, the protein concentration was determined by a Bradford assay (BioRad) and samples containing 5 mg of protein per aliquot were prepared. The samples were immediately used for experiments or frozen in liquid nitrogen and stored frozen at −80° C. Cell extracts from human HL60 cells and mouse raw 264.7 cells were mixed in a one to one (1:1) ratio.
(§4) Sepharose®-beads with the immobilized ligands (35 μl beads per aliquot) were equilibrated in lysis buffer and incubated with a cell lysate sample containing 5 mg of protein on an end-over-end shaker (Roto Shake Genie, Scientific Industries Inc.) for 60 minutes at 4° C. Beads were collected, transferred to Mobicol-columns (MoBiTech 10055) and washed with 10 ml lysis buffer containing 0.4% NP40 detergent, followed by 5 ml lysis buffer containing 0.2% detergent. To elute bound proteins, 60 μl 2× SDS sample buffer was added to the column. The column was incubated for 30 minutes at 4° C. and the eluate was transferred to a siliconized microfuge tube by centrifugation. Proteins were then alkylated with 108 mM iodoacetamid. Proteins were then separated by SDS-Polyacrylamide electrophoresis (SDS-PAGE). Suitable gel bands were cut out and subjected to in-gel proteolytic digestion with trypsin. […]

PIK3Cb (PI3Kbeta) [1] = biological target: T2, PIK3Cb (PI3Kbeta) (Homo sapiens, UniProt P42338); assay: as above; settings: for IC50: HL-60 + RAW 264.7 mixed lysate
T2 construct: Cell lysates from a human (HL60) and a mouse cell line (Raw 264.7) were prepared; endogenous in cells; host or cells: HL60
Protocol: as §1, §2, §3, §4

PIK3Ca = biological target: T3, PIK3Ca (Homo sapiens, UniProt P42336); assay: as above; settings: for IC50: HL-60 + RAW 264.7 mixed lysate
T3 construct: Cell lysates from a human (HL60) and a mouse cell line (Raw 264.7) were prepared; endogenous in cells; host or cells: HL60
T3 sequence (P42336 whole entry): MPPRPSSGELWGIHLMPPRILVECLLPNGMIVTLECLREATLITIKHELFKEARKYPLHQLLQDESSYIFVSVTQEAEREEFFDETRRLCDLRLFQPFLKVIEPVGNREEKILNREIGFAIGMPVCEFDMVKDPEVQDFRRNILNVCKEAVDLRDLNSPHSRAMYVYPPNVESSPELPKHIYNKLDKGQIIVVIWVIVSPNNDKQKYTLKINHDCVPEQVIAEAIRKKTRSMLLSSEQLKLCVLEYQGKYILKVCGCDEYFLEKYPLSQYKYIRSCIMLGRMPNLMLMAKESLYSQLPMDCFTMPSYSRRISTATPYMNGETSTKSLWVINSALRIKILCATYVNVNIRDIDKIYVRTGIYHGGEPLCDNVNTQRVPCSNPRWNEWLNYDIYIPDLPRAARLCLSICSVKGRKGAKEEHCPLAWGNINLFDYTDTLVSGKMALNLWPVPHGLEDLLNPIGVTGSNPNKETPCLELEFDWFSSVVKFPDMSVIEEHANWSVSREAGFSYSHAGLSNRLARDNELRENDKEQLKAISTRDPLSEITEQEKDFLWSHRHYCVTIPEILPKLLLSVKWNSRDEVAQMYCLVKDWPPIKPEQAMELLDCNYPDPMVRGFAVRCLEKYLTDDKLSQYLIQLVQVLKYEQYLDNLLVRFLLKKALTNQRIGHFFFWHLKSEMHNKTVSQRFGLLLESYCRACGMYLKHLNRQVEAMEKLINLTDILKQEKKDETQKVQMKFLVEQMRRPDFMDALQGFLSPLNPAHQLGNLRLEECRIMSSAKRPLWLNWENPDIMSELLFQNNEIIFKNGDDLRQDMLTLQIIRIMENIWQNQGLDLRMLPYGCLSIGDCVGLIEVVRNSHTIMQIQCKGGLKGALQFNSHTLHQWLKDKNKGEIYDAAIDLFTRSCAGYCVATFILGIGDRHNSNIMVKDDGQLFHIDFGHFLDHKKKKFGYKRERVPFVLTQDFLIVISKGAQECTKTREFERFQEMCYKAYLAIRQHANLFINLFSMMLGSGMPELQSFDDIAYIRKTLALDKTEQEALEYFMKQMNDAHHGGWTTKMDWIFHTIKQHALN
T3 sequence (P27986 whole entry partner): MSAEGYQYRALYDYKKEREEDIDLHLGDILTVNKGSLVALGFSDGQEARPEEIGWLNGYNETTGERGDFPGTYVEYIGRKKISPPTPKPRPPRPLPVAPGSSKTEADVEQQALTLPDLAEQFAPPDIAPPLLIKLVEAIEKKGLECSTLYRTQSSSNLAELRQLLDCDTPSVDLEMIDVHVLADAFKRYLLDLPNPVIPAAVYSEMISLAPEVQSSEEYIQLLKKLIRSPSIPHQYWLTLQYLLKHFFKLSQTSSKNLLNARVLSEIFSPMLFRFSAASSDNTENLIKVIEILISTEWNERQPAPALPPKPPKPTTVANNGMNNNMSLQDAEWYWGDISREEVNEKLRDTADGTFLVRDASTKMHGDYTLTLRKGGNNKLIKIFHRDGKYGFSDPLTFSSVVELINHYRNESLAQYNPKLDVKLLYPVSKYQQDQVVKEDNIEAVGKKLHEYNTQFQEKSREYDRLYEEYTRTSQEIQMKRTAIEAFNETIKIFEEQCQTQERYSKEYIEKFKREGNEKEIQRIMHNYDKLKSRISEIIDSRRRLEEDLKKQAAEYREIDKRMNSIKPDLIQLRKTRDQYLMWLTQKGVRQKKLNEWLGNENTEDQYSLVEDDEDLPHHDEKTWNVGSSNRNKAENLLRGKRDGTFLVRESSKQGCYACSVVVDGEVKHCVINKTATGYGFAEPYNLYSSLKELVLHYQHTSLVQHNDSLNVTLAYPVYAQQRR
Protocol: as §1, §2, §3, §4

PIK3Cd (PI3Kδ) [2] = biological target: T4, PIK3Cd (PI3Kδ) (Mus musculus, UniProt O35904); assay: as above; settings: HL-60 + RAW 264.7 mixed lysate
T4 construct: Cell lysates from a human (HL60) and a mouse cell line (Raw 264.7) were prepared; endogenous in cells; host or cells: RAW264.7
Protocol: as §1, §2, §3, §4

PIK4Cb = biological target: T5, PIK4Cb (Homo sapiens, UniProt Q9UBF8); assay: as above; settings: HL-60 + RAW 264.7 mixed lysate
T5 construct: Cell lysates from a human (HL60) and a mouse cell line (Raw 264.7) were prepared; endogenous in cells; host or cells: HL60
Protocol: as §1, §2, §3, §4

PIK3Cg (PI3Kγ) [3] = biological target: T6, PIK3Cg (PI3Kγ) (Mus musculus, UniProt Q9JHG7); assay: as above; settings: for IC50: HL-60 + RAW 264.7 mixed lysate
T6 construct: Cell lysates from a human (HL60) and a mouse cell line (Raw 264.7) were prepared; endogenous in cells; host or cells: RAW264.7
T6 sequence (Q9JHG7 whole entry): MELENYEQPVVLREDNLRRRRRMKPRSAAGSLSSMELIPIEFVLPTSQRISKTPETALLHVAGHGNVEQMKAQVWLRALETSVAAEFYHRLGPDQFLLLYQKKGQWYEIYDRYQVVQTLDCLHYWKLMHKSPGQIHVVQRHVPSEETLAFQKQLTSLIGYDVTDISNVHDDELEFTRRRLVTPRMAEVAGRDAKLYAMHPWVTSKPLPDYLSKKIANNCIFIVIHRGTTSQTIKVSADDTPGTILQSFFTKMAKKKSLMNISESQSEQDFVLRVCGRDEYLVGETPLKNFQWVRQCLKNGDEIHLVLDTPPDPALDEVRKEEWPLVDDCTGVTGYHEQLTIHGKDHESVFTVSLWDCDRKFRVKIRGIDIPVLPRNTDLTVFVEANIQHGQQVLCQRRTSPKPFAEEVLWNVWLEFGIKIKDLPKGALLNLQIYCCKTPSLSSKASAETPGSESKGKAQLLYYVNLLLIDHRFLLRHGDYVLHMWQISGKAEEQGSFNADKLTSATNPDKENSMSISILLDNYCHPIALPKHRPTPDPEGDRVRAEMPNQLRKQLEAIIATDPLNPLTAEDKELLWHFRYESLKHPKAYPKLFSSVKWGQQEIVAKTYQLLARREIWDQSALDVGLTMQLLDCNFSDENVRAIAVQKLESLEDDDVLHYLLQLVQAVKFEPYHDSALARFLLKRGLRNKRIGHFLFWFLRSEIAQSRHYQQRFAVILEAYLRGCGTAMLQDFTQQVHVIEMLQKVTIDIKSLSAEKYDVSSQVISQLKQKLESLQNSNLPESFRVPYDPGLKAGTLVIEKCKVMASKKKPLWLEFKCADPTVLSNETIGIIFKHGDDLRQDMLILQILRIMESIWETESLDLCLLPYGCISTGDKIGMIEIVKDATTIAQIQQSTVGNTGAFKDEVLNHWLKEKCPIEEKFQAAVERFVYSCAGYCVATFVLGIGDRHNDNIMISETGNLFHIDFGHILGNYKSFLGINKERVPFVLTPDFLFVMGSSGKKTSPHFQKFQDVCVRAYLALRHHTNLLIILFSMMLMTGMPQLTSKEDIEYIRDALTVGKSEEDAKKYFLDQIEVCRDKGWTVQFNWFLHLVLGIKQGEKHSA
Protocol: as §1, §2, §3, §4

PIK3Cd (PI3Kδ) [4] = biological target: T7, PIK3Cd (PI3Kδ) (Homo sapiens, UniProt O00329); assay: as above; settings: for IC50: HL-60 + RAW 264.7 mixed lysate
T7 construct: Cell lysates from a human (HL60) and a mouse cell line (Raw 264.7) were prepared; endogenous in cells; host or cells: HL60
T7 sequence (O00329 whole entry): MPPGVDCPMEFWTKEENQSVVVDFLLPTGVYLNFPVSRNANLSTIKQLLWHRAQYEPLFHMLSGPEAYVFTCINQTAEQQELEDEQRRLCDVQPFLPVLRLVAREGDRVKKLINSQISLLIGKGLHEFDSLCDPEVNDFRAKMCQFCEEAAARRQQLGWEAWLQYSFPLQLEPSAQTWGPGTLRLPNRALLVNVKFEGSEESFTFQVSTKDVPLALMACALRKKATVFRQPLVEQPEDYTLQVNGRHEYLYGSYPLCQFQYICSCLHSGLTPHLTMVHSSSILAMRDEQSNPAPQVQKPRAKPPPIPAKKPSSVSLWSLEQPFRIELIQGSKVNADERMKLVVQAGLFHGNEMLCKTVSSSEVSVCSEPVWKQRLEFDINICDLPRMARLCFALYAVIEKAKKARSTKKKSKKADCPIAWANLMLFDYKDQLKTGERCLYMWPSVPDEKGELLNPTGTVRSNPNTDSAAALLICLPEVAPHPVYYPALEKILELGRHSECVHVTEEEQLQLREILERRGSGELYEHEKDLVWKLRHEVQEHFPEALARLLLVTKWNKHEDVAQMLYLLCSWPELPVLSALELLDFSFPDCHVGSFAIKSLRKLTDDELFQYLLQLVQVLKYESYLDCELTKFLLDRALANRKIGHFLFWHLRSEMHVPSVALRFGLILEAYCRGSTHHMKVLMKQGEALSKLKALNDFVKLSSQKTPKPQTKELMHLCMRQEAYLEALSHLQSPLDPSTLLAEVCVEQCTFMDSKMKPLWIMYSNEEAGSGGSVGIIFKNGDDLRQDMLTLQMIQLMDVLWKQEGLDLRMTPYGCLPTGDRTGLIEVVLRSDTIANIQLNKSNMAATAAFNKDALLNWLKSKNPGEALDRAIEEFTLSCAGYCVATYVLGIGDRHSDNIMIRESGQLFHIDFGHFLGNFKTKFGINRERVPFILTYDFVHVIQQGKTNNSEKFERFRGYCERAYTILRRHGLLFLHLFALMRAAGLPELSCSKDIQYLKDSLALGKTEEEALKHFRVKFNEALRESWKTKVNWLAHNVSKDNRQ
T7 sequence (P27986 whole entry partner): as the sequence (P27986 whole entry partner) above
Protocol: as §1, §2, §3, §4

PIK3Cg (PI3Kγ) [5] = biological target: T8, PIK3Cg (PI3Kγ) (Homo sapiens, UniProt P48736); assay: as above; settings: for IC50: HL-60 + RAW 264.7 mixed lysate
T8 construct: Cell lysates from a human (HL60) and a mouse cell line (Raw 264.7) were prepared; endogenous in cells; host or cells: HL60
T8 sequence (P48736 whole entry): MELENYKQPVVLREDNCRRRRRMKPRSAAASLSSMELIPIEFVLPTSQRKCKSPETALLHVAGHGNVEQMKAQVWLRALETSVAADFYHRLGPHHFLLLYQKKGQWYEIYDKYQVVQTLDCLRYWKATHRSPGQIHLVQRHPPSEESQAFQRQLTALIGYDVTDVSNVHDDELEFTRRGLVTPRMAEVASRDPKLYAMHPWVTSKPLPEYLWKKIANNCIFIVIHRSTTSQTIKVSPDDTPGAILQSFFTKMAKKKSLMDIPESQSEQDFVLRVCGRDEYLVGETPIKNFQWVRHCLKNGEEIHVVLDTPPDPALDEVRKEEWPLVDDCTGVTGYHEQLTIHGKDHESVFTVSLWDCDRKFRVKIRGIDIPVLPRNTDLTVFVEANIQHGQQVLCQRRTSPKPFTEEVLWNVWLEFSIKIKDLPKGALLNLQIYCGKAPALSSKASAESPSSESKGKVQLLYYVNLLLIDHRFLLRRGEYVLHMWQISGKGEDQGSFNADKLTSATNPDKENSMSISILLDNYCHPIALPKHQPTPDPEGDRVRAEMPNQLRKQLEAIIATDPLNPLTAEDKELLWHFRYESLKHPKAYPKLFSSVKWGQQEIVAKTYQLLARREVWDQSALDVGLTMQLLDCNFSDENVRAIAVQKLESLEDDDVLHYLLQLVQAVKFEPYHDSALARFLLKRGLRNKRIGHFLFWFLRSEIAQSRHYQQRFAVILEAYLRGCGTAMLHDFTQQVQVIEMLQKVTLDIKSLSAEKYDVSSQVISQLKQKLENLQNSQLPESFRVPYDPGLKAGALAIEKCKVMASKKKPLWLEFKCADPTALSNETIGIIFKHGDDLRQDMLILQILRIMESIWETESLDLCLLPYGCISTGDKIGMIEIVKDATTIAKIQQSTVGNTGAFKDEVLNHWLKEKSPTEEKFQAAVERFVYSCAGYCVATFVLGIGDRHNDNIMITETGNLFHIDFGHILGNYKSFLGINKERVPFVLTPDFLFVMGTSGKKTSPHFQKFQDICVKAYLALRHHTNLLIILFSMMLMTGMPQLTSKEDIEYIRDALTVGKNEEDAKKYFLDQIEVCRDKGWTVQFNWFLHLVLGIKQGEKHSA
Protocol: as §1, §2, §3, §4

PIK3Cb (PI3Kbeta) [6] = biological target: T9, PIK3Cb (PI3Kbeta) (Mus musculus, UniProt Q8BTI9); assay: as above; settings: HL-60 + RAW 264.7 mixed lysate
T9 construct: Cell lysates from a human (HL60) and a mouse cell line (Raw 264.7) were prepared; endogenous in cells; host or cells: RAW264.7
Protocol: as §1, §2, §3, §4

PIK4Ca = biological target: T10, PIK4Ca (Homo sapiens, UniProt P42356); assay: as above; settings: HL-60 + RAW 264.7 mixed lysate
T10 construct: Cell lysates from a human (HL60) and a mouse cell line (Raw 264.7) were prepared; endogenous in cells; host or cells: HL60
Protocol: as §1, §2, §3, §4

PIK3C3 = biological target: T11, PIK3C3 (Homo sapiens, UniProt Q8NEB9); assay: as above; settings: Experiment 1 (human/mouse 1); HL-60 + RAW 264.7 mixed lysate
T11 construct: Cell lysates from a human (HL60) and a mouse cell line (Raw 264.7) were prepared; endogenous in cells; host or cells: HL60
Protocol: as §1, §2, §3, §4

PI3Kβ [7] = biological target: T12, PI3Kβ (Rattus norvegicus, UniProt Q9Z1L0); assay: Competition binding profile with the affinity matrix in mixed extracts of human and rodent cell lines; settings: mixed extracts of human (Jurkat) and rat RBL-1 cells
T12 construct: acquired in mixed extracts of human, mouse and rat cell lines; endogenous in cells
Protocol: (§5) Since compound efficacy and toxicity are evaluated in laboratory animals, it is important to determine its potency and selectivity in the relevant species. In order to minimize inter-assay variation, we used a mass spectrometric targeted data acquisition approach (Savitski et al., 2010. J. Am. Soc. Mass. Spectrom. 21(10):1668-1679) based on species specific proteotypic peptides (FIG. 7) and mixed cell lysates. Competition binding profiles of compound 2 with the affinity matrix were acquired in mixed extracts of human, mouse and rat cell lines.
(§6) Proteomics-based inhibitor profiling. Affinity profiling assays were performed as described previously ([…]). Derivatized sepharose® beads (35 μl beads per sample) were equilibrated in lysis buffer and incubated with 1 ml (5 mg protein) cell lysate, which had been preincubated with test compound or vehicle for 45 min, on an end-over-end shaker for 1 hour. Incubation was done at 4° C. for all compounds. Beads were transferred to disposable columns (MoBiTec), washed with lysis buffer containing 0.2% NP-40 and eluted with 50 μl 2× SDS sample buffer. Proteins were alkylated with […] iodoacetamide for 30 minutes, separated on 4-12% NuPAGE (Invitrogen), and stained with colloidal Coomassie.
(§7) Sample preparation for mass spectrometry. Gels were cut into slices across the entire separation range and subjected to in-gel digestion. Peptide extracts were labeled with tandem mass tags (TMT®) (Thermo-Fisher Scientific) in 40 mM triethylammoniumbicarbonate (TEAB), pH 8.53. After quenching of the reaction with glycin labeled extracts were combined. For compound profiling experiments extracts from vehicle treated samples were labeled with TMT® reagent 131, and combined with extracts from compound-treated samples labeled with TMT® reagents 126-130, optionally fractionated using reversed phase chromatography at pH 12, dried and acidified prior to LC-MS/MS analysis.
(§8) LC-MS/MS analysis. Samples were dried in vacuo and resuspended in 0.1% formic acid in water and aliquots of the sample were injected into a nano-LC system (Eksigent 1 D+) coupled to LTQ-Orbitrap mass spectrometers (Thermo-Finnigan). Peptides were separated on custom 50 cm×[…] (internal diameter) reversed-phase columns (Reprosil) at 40° C. Gradient elution was performed from 2% acetonitrile to 40% acetonitrile in 0.1% formic acid over 2-4 hours. […] Intact peptides were detected in the Orbitrap at 30.000 resolution. […]
(§9) Creation of peptide inclusion lists. […] Subsequently for each human and mouse (or rat) protein that was of interest to the study the selected peptides were ranked according to the quality of the quantification and ease of identification inherent to these peptides (Savitski et al., 2010, J. Am. Soc. Mass. Spectrom. 21(10):1668-1679). […]
(§10) Peptide and protein quantification. […]

PI3Kβ [8] = biological target: T13, PI3Kβ (Mus musculus, UniProt Q8BTI9); assay: as above; settings: mixed extracts of human (Jurkat) and mouse RAW264.7 cells
T13 construct: acquired in mixed extracts of human, mouse and rat cell lines; endogenous in cells
Protocol: as §5, §6, §7, §8, §9, §10

PI3Kγ [9] = biological target: T14, PI3Kγ (Mus musculus, UniProt Q9JHG7); assay: as above; settings: mixed extracts of human (Jurkat) and mouse RAW264.7 cells
T14 construct: acquired in mixed extracts of human, mouse and rat cell lines; endogenous in cells
Protocol: as §5, §6, §7, §8, §9, §10

PI3Kγ [10] = assay: as above; settings: mixed extracts of human (Jurkat) and rat RBL-1 cells
Protocol: as §5, §6, §7, §8, §9, §10

[11] = potency ratio across species, average of two experiments

CC(C)(C)NS(=O)(=O)c1cncc(-c2ccc3nc(N)nn3c2)c1 [compound 1]
IC50 (PIK3R4): ≥ 3 µM
IC50 (PIK3Cb (PI3Kbeta) [1]; Experiment 1 (human/mouse 1)): 0.136 µM
IC50 (PIK3Cb (PI3Kbeta) [1]; Experiment 2 (human/mouse 2)): 0.283 µM
Average ratio human mouse, PIK3Cb (PIK3Cb (PI3Kbeta) [1]; [11]): 0.87
IC50 (PIK3Ca; Experiment 1 (human/mouse 1)): 2.37 µM
IC50 (PIK3Ca; Experiment 2 (human/mouse 2)): 2.6 µM
Average ratio human mouse, PIK3Ca (PIK3Ca; [11]): app. 1
IC50 (PIK3Cd (PI3Kδ) [2]; Experiment 1 (human/mouse 1)): 1.31 µM
IC50 (PIK3Cd (PI3Kδ) [2]; Experiment 2 (human/mouse 2)): 1.29 µM
IC50 (PIK4Cb; Experiment 1 (human/mouse 1)): ≥ 3 µM
IC50 (PIK4Cb; Experiment 2 (human/mouse 2)): ≥ 3 µM
IC50 (PIK3Cg (PI3Kγ) [3]; Experiment 1 (human/mouse 1)): 0.057 µM
IC50 (PIK3Cg (PI3Kγ) [3]; Experiment 2 (human/mouse 2)): 0.071 µM
IC50 ratio for PIK3CD and PIK3CG (selectivity window) (PIK3Cg (PI3Kγ) [3]; in mouse): 23
IC50 (PIK3Cd (PI3Kδ) [4]; Experiment 1 (human/mouse 1)): 1.06 µM
IC50 (PIK3Cd (PI3Kδ) [4]; Experiment 2 (human/mouse 2)): 1.53 µM
Average ratio human mouse, PIK3Cd (PIK3Cd (PI3Kδ) [4]; [11]): 1.0
IC50 (PIK3Cg (PI3Kγ) [5]; Experiment 1 (human/mouse 1)): 0.022 µM
IC50 (PIK3Cg (PI3Kγ) [5]; Experiment 2 (human/mouse 2)): 0.027 µM
ratio of the IC50 for PIK3CD and PIK3CG (selectivity window) (PIK3Cg (PI3Kγ) [5]; in humans): 48
Average ratio human mouse, PIK3Cg (PIK3Cg (PI3Kγ) [5]; [11]): 2.61
IC50 (PIK3Cb (PI3Kbeta) [6]; Experiment 1 (human/mouse 1)): 0.251 µM
IC50 (PIK3Cb (PI3Kbeta) [6]; Experiment 2 (human/mouse 2)): 0.162 µM
IC50 (PIK4Ca; Experiment 1 (human/mouse 1)): ≥ 3 µM
IC50 (PIK4Ca; Experiment 2 (human/mouse 2)): ≥ 3 µM
IC50 (PIK3C3): ≥ 3 µM

CC(C)(C)NS(=O)(=O)c1cncc(-c2cc(F)c3nc(N)nn3c2)c1 [compound 2]
potency for PI3Kβ in rat compared to human (PI3Kβ [7]): two- to four-fold lower
potency for PI3Kβ in mouse compared to human (PI3Kβ [8]): two- to four-fold lower
potency for PI3Kγ in mouse compared to human (PI3Kγ [9]): two- to four-fold lower
potency for PI3Kγ in rat compared to human (PI3Kγ [10]): two- to four-fold lower
